Data on 26 molecules can be found in patent US6469010B1, “Medicament for the alleviation or treatment of symptom derived from the ischemic disease and compound useful thereof” (Suntory Limited, priority 1995, dated 2002).

A short description of one data set: Acute toxicity test. The following applies: male, mouse, in vivo, iv, ddY mice, death rate up to 24 hours after administration. On the procedure:
Medicine was intravenously administered to ddY mice (male, 6 weeks old). The 50 percent lethal dosage LD50 of the acute toxicity was calculated by an ordinary method from the death rate up to 24 hours after administration.

Another data set deals with T1, Dopamine D2 receptor (Rattus norvegicus, UniProt P61169).
T1 construct: membrane fraction prepared from the striatum of Wister male rats; from tissue; host or cells: rat striatum membrane fraction
In words: Dopamine D2 receptor blocking action ([3H]raclopride binding, striatum membrane fraction). The following applies: 1.0 nM [3H]raclopride, 25° C., one hour. More on the design: species or system Wister male rats. On the procedure:
Dopamine D2 Receptor Blocking Action
57 μl of the membrane fraction prepared from the striatum of Wister male rats,(6 weeks old) was incubated in a buffer at 25° C. for one hour along with the compound and 1.0 nM [^3H) raclopride. A GF/C glass filter (0.1% polyethylene imine treatment) was used for separation of the B and F, then the radioactivity was measured by a beta plate and the effect of the compound was evaluated.

For a further data set, the system named is T-type Ca2+ channel. Description: T-type calcium channel inhibiting action (whole-cell patch clamp, hippocampal CA1 pyramidal cells). Format: cell-based, Wistar rats. The note with it: rat hippocampal CA1 pyramidal cells; suppression of peak current after one minute of application. How it is done:
T-Type Calcium Channel Inhibiting Action
The hippocampal CA1 pyramidal cells were isolated from Wistar rats (female, 1 week old) in accordance with the method of Takahashi et al. K. Takahashi et al.; J Pharmacol. Exp; Ther., 256, 169 (1991)] and the T-type calcium current under conditions of a fixed membrane potential was measured using the whole-cell configuration of the pach clamp technique. The effects of the compounds were evaluated from the rate of suppression of the peak current after one minute of application using the concentration clamp method.
(In general: In patch-clamp work, channel activity is measured electrically.)

A further data set concerns DBA/2N mice. In words: Audiogenic seizure suppressing action. Format: in vivo. The note with it: Mus musculus, ip, 20 min; compound 10 mg/kg, i.p.; audio stimulus after 20 minutes; suppression of average seizure score; read-out: Antiseizure action (suppression rate %). How it is done: Audiogenic Seizure Suppressing Action
The audiogenic seizure suppressing action of the compounds was evaluated by the method of Sarro et al. [G. B. De Sarro et al.; Br. J. Pharmacol., 93, 247 (1988)]. That is, DBA/2N mice (male, 3 weeks) were administered with the compound dissolved in 10% 2-hydroxypropyl-β-cyclodextrin intraperitoneally. After 20 minutes, a supersonic washer was used to apply audio stimulus of at least 90 dB for one minute. The wild running (WR), clonic seizures (clonus), tonic seizures (tonus), and respiratory arrest (RA) were evaluated. The seizure suppressing action was evaluated from the rate or suppression of the average value of the seizure score found from 0=no response, 1=WR, 2=clonus, 3=tonus, and 4=RA.

The subject of a further data set is Na+ channel. Description: Veratridine-induced sodium channel activity inhibiting action (membrane potential of synaptosomes, Rhodamine 6G). Format: biochemical, Wistar rats. The note with it: 0.1 μM of compound; rat brain synaptosomes, veratridine-induced depolarization. How it is done: Veratridine-induced Sodium Channel Activity Inhibiting Action
The membrane potential of the synaptosomes prepared from the brain membrane of Wistar rats (male, 10 to 12 weeks old) was measured by the method of Aiuchi et al. [T. Aiuchi et al: Biochimi. Biophys. Acta.

T1 sequence (P61169 whole entry): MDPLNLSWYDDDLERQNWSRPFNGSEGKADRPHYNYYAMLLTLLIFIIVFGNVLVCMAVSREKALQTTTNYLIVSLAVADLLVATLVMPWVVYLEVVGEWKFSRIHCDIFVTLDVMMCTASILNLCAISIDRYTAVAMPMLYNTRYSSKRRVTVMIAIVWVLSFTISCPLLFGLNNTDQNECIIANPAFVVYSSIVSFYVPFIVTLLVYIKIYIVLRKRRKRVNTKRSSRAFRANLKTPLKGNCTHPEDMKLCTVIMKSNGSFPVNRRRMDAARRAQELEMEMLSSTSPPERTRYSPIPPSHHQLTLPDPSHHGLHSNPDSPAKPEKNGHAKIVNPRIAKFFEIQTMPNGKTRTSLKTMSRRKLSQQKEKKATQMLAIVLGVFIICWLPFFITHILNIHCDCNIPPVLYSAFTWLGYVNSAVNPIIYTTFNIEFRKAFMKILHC

For orientation: LD50 means the dose expected to kill half of the subjects tested. Higher therefore signals lower toxicity. The term IC50 denotes the concentration that inhibits the measured activity by half. Turning to `c1ccc(Oc2ccc(C3CCN(C[C@@H]4C[C@H]4c4ccccc4)CC3)cc2)cc1` (relative stereo) [Compound 26, 4-(phenoxyphenyl)-1-[trans-(2-phenyl)cyclopropylmethyl]piperidine], the LD50 at 24 h in “Acute toxicity test” was 32.9 mg/kg. In addition, the IC50 came out at 3.37 µM on Dopamine D2 receptor and 2.8 µM in the data set on T-type Ca2+ channel. Also, in the data set with DBA/2N mice, the inhibition in vivo at 10 mg/kg stood at 78%. Besides, the “Antiveratridine action (inhibiting rate %)” value with Na+ channel is recorded as 36.5%.

For the molecule `COc1cc(/C=C/CN2CCC(c3ccc(Oc4ccccc4)cc3)CC2)ccc1O` [Compound 19, (E)-1-[3-(4-hydroxy-3-methoxyphenyl)-2-propenyl]-4-(4-phenoxyphenyl)piperidine], in the data set on DBA/2N mice, the inhibition in vivo at 10 mg/kg amounted to 53.6%. In the data set on Na+ channel, the “Antiveratridine action (inhibiting rate %)” value is 26.1%.

On to `C(=C\c1ccccc1)/CN1CCC(c2ccc(Oc3ccccc3)cc2)CC1` [Compound 21, (E)-4-(4-phenoxyphenyl)-1-(3-phenyl-2-propenyl)piperidine], for which the median lethal dose (LD50) at 24 h in “Acute toxicity test” was 40.9 mg/kg. Besides, the values for the IC50 on Dopamine D2 receptor and in the data set with T-type Ca2+ channel were 2.68 µM and 0.8 µM, respectively. Also, the inhibition in vivo at 10 mg/kg with DBA/2N mice is 77.3%. Besides, the “Antiveratridine action (inhibiting rate %)” value in the data set on Na+ channel is recorded as 20.3%.

Take `Fc1ccc(OCCCCN2CCC(c3ccc(Oc4ccccc4)cc3)CC2)cc1` [Compound 28, 1-[4-(4-fluorophenyl)-oxybutyl]-4-(4-phenoxyphenyl)piperidine]: the inhibition in vivo at 10 mg/kg in the data set on DBA/2N mice worked out at 56.9%. The “Antiveratridine action (inhibiting rate %)” value in the data set with Na+ channel stood at 38%.

Regarding `COc1ccc(CN2CCC(c3ccc(Oc4ccccc4)cc3)CC2)c(OC)c1OC` [Compound 29, 4-(4-phenoxyphenyl)-1-[(2,3,4-trimethoxyphenyl)methyl]piperidine], the inhibition in vivo at 10 mg/kg in the data set with DBA/2N mice was 66.2%. The “Antiveratridine action (inhibiting rate %)” value in the data set with Na+ channel was found to be 9.9%.

Take `Fc1ccc(OCCCCN2CCN(c3ccc(Oc4ccccc4)cc3)CC2)cc1` [Compound 41, 4-[4-(4-fluorophenyl)-oxybutyl]-1-(4-phenoxyphenyl)piperazine]: in the data set on DBA/2N mice, the inhibition in vivo at 10 mg/kg worked out at 42.7%. For the same molecule, the “Antiveratridine action (inhibiting rate %)” value in the data set on Na+ channel is on record as 20.8%.

With `COc1ccc(CN2CCN(c3ccc(Oc4ccccc4)cc3)CC2)c(OC)c1OC` [Compound 46, 1-(4-phenoxyphenyl)-4-[(2,3,4-trimethoxyphenyl)methyl]piperazine], the inhibition in vivo at 10 mg/kg in the data set with DBA/2N mice amounted to 27.9%. Besides, in the data set with Na+ channel, the “Antiveratridine action (inhibiting rate %)” value is reported as 11.7%.

On to `COc1ccc(/C=C/CN2CCN(c3ccc(Cc4ccc(F)cc4)cc3)CC2)c(OC)c1OC` [Compound 48, (E)-1-[4-(4-fluorophenyl)-methylphenyl]-1-[3-(2,3,4-trimethoxyphenyl)-2-propenyl]-piperazine], for which the inhibition in vivo at 10 mg/kg with DBA/2N mice is 53.6%. In the data set with Na+ channel, the “Antiveratridine action (inhibiting rate %)” value stood at 20.5%.

As for `COc1cc(/C=C/CN2CCN(c3ccc(Cc4ccc(F)cc4)cc3)CC2)ccc1O` [Compound 49], the IC50 on Dopamine D2 receptor amounted to 0.987 µM. Further, the inhibition in vivo at 10 mg/kg in the data set on DBA/2N mice was 60%. The “Antiveratridine action (inhibiting rate %)” value with Na+ channel is recorded as 17.3%.

On to `Fc1ccc(/C=C/CN2CCN(c3ccc(Cc4ccc(F)cc4)cc3)CC2)cc1` [Compound 50, (E)-1-[4-(4-fluorophenyl)methylphenyl]-4-[3-(4-fluorophenyl)-2-propenyl]-piperazine], for which the IC50 in the data set on T-type Ca2+ channel was 4.2 µM. Further, the inhibition in vivo at 10 mg/kg with DBA/2N mice came to 72%.

In the case of `O=C(CCCN1CCN(c2ccc(Cc3ccc(F)cc3)cc2)CC1)c1ccc(F)cc1` [Compound 58, 1-[4-(4-fluorophenyl)methylphenyl]-4-[4-((4-fluorophenyl)-4-oxo)butyl]-piperazine], the inhibition in vivo at 10 mg/kg in the data set with DBA/2N mice is 66%. In addition, the “Antiveratridine action (inhibiting rate %)” value in the data set with Na+ channel was 33.9%.

In the case of `Fc1ccc(Cc2ccc(C3CCN(CC4(c5ccccc5)CC4)CC3)cc2)cc1` [Compound 62, 4-[4-(4-fluorophenyl)-methylphenyl]-1-(1-phenyl-1-cyclopropane)methyl-piperidine], in the data set with DBA/2N mice, the inhibition in vivo at 10 mg/kg was 44%. Further, the “Antiveratridine action (inhibiting rate %)” value in the data set on Na+ channel amounted to 23.9%.

Take `O=C(CN1CCC(c2ccc(Cc3ccc(F)cc3)cc2)CC1)c1ccccc1` [Compound 63, 4-[4-(4-fluorophenyl)methylphenyl]-1-(2-phenyl-2-oxo)ethylpiperidine]: in the data set on DBA/2N mice, the inhibition in vivo at 10 mg/kg was 76%. Besides, in the data set with Na+ channel, the “Antiveratridine action (inhibiting rate %)” value stood at 31.1%.

As for `O=C(CN1CCC(c2ccc(Oc3ccccc3)cc2)CC1)c1ccccc1` [Compound 64, 4-(4-phenoxyphenyl)-1-(2-phenyl-2-oxo)ethylpiperidine], the inhibition in vivo at 10 mg/kg with DBA/2N mice is 94%. In addition, the “Antiveratridine action (inhibiting rate %)” value in the data set on Na+ channel was determined as 34.5%.

In the case of `COc1ccc(C(=O)CN2CCC(c3ccc(Oc4ccccc4)cc3)CC2)cc1` [Compound 66, 1-[2-(4-methoxyphenyl)-2-oxo]ethyl-4-(4-phenoxyphenyl)piperidine], the inhibition in vivo at 10 mg/kg with DBA/2N mice turned out to be 39.2%. Besides, in the data set on Na+ channel, the “Antiveratridine action (inhibiting rate %)” value turned out to be 19.6%.

Turning to `O=C(CN1CCC(c2ccc(Oc3ccccc3)cc2)CC1)c1ccc(F)cc1` [Compound 67, 1-[2-(4-fluorophenyl)-2-oxo]ethyl-4-(4-phenoxyphenyl)piperidine], the inhibition in vivo at 10 mg/kg in the data set with DBA/2N mice came to 37%. The “Antiveratridine action (inhibiting rate %)” value in the data set on Na+ channel is 15%.

With `CC(C(=O)c1ccccc1)N1CCC(c2ccc(Oc3ccccc3)cc2)CC1` (stereo not drawn) [Compound 69, 1-(1-benzoylethyl)-4-(4-phenoxyphenyl)piperidine], the inhibition in vivo at 10 mg/kg in the data set with DBA/2N mice was found to be 64.7%. Moreover, in the data set on Na+ channel, the “Antiveratridine action (inhibiting rate %)” value is given as 11.2%.

Turning to `c1ccc(Oc2ccc(C3CCN(CC4(c5ccccc5)OCCO4)CC3)cc2)cc1` [Compound 73, 2-[4-(4-phenoxyphenyl)piperidin-1-yl]methyl-2-phenyl-1,3-dioxolane], in the data set on T-type Ca2+ channel, the IC50 came out at 4.6 µM. Moreover, the inhibition in vivo at 10 mg/kg in the data set on DBA/2N mice came out at 52.2%. Moreover, the “Antiveratridine action (inhibiting rate %)” value in the data set with Na+ channel worked out at 16.1%.

Take `ON=C(CN1CCC(c2ccc(Oc3ccccc3)cc2)CC1)c1ccccc1` [Compound 74, 4-(4-phenoxyphenyl)-1-(2-phenyl-2-hydroxyimino)ethylpiperidine]: the inhibition in vivo at 10 mg/kg with DBA/2N mice is 44.4%. Also, the “Antiveratridine action (inhibiting rate %)” value with Na+ channel is given as 14.6%.

Regarding `COc1ccc(Cc2ccc(C3CCN(C/C=C/c4ccccc4)CC3)cc2)cc1` [Compound 75, 4-[4-(4-methoxyphenyl)methylphenyl]-(E)-1-(3-phenyl-2-propenyl)piperidine], in the data set on T-type Ca2+ channel, the IC50 came to 1.4 µM. For the same molecule, the inhibition in vivo at 10 mg/kg in the data set with DBA/2N mice is 99%. For the same molecule, in the data set with Na+ channel, the “Antiveratridine action (inhibiting rate %)” value was 55.2%.

For `OC(CN1CCC(c2ccc(Oc3ccccc3)cc2)CC1)c1ccccc1` (stereo not drawn) [Compound 77, 1-(2-hydroxy-2-phenyl)-ethyl-4-(4-phenoxyphenyl)piperidine], in the data set on DBA/2N mice, the inhibition in vivo at 10 mg/kg is 85.7%. In the data set with Na+ channel, the “Antiveratridine action (inhibiting rate %)” value was 31.1%.

For `OC(CN1CCC(c2ccc(Oc3ccccc3)cc2)CC1)c1ccc(Cl)cc1` (stereo not drawn) [Compound 78, 1-[2-(4-chlorophenyl)-2-hydroxy]ethyl-4-(4-phenoxyphenyl)piperidine], in the data set on DBA/2N mice, the inhibition in vivo at 10 mg/kg was found to be 66%. In addition, the “Antiveratridine action (inhibiting rate %)” value in the data set with Na+ channel is reported as 44.4%.

In the case of `OC(CN1CCC(c2ccc(Cc3ccc(F)cc3)cc2)CC1)c1ccccc1` (stereo not drawn) [Compound 79, 4-[4-(4-fluorophenyl)methylphenyl]-1-(2-hydroxy-2-phenyl)ethylpiperidine], in the data set with T-type Ca2+ channel, the IC50 is 3.1 µM. Further, in the data set with DBA/2N mice, the inhibition in vivo at 10 mg/kg was 79.8%. Further, the “Antiveratridine action (inhibiting rate %)” value in the data set with Na+ channel worked out at 37.1%.

On to `OC(COc1ccccc1)CN1CCC(c2ccc(Oc3ccccc3)cc2)CC1` (stereo not drawn) [Compound 80, 1-(2-hydroxy-3-phenoxy)propyl-4-(4-phenoxyphenyl)piperidine], for which, in the data set with T-type Ca2+ channel, the IC50 is 1.9 µM. The inhibition in vivo at 10 mg/kg in the data set on DBA/2N mice amounted to 66.3%. Also, the “Antiveratridine action (inhibiting rate %)” value in the data set with Na+ channel is 49.7%.

Take `OC(COc1ccccc1)CN1CCC(c2ccc(Cc3ccc(F)cc3)cc2)CC1` (stereo not drawn) [Compound 81, 4-[4-(4-fluorophenyl)methylphenyl]-1-(2-hydroxy-3-phenoxy)propylpiperidine]: the inhibition in vivo at 10 mg/kg in the data set with DBA/2N mice turned out to be 61%. Also, the “Antiveratridine action (inhibiting rate %)” value in the data set with Na+ channel is on record as 24.1%.

Take `O=C(CN1CCN(c2ccc(Cc3ccc(F)cc3)cc2)CC1)c1ccccc1` [Compound 82, 1-[4-(4-fluorophenyl)methylphenyl]-4-(2-phenyl-2-oxo)ethylpiperazine]: the inhibition in vivo at 10 mg/kg in the data set on DBA/2N mice is 71.9%. The “Antiveratridine action (inhibiting rate %)” value in the data set with Na+ channel came to 16.9%.
